Values joined by “and” are separate entries in the source; they are usually repeats but may differ in a detail not shown here. Equal values may be shown once.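 Compound exposure: 48 hours, 5 concentrations, 96-well plates. GI50: concentration for 50% inhibition of growth. TGI denotes the concentration required for complete inhibition of growth.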
Legend:
Assay in all cases: inhibition of tumour cell growth, NCI panel, 48 h
MDA-MB-231 breast = test system: MDA-MB-231 breast
BT-549 breast = test system: BT-549 breast
SK-MEL-28 melanoma = test system: SK-MEL-28 melanoma
HT29 colon = test system: HT29 colon
TK-10 renal = test system: TK-10 renal
786-0 renal = test system: 786-0 renal
SN12C renal = test system: SN12C renal
OVCAR-3 ovarian = test system: OVCAR-3 ovarian
HCT-116 colon = test system: HCT-116 colon
HL-60(TB) leukemia = test system: HL-60(TB) leukemia
HCT-15 colon = test system: HCT-15 colon
SW-620 colon = test system: SW-620 colon
KM12 colon = test system: KM12 colon
HS 578T breast = test system: HS 578T breast
SNB-75 CNS = test system: SNB-75 CNS
K-562 leukemia = test system: K-562 leukemia
HOP-62 NSCLC = test system: HOP-62 NSCLC
DU-145 prostate = test system: DU-145 prostate
NCI-H522 lung = test system: NCI-H522 lung
LOX IMVI melanoma = test system: LOX IMVI melanoma
CCRF-CEM leukemia = test system: CCRF-CEM leukemia
SK-MEL-5 melanoma = test system: SK-MEL-5 melanoma
COLO 205 colon = test system: COLO 205 colon
SK-OV-3 ovarian = test system: SK-OV-3 ovarian
NCI-H23 lung = test system: NCI-H23 lung
SF-268 CNS = test system: SF-268 CNS
UO-31 renal = test system: UO-31 renal
MCF7 breast = test system: MCF7 breast
UACC-257 melanoma = test system: UACC-257 melanoma
NCI/ADR-RES ovarian = test system: NCI/ADR-RES ovarian
NCI-H226 lung = test system: NCI-H226 lung
RPMI-8226 leukemia = test system: RPMI-8226 leukemia
UACC-62 melanoma = test system: UACC-62 melanoma
MALME-3M melanoma = test system: MALME-3M melanoma
SNB-19 CNS = test system: SNB-19 CNS
T-47D breast = test system: T-47D breast
A549 NSCLC = test system: A549 NSCLC
MOLT-4 leukemia = test system: MOLT-4 leukemia
M14 melanoma = test system: M14 melanoma
A498 renal = test system: A498 renal
SF-539 CNS = test system: SF-539 CNS
RXF 393 renal = test system: RXF 393 renal
SF-295 CNS = test system: SF-295 CNS
U251 CNS = test system: U251 CNS
OVCAR-4 ovarian = test system: OVCAR-4 ovarian
NCI-H460 lung = test system: NCI-H460 lung
OVCAR-5 ovarian = test system: OVCAR-5 ovarian
SK-MEL-2 melanoma = test system: SK-MEL-2 melanoma
EKVX NSCLC = test system: EKVX NSCLC
SR leukemia = test system: SR leukemia
IGROV1 ovarian = test system: IGROV1 ovarian
HOP-92 NSCLC = test system: HOP-92 NSCLC
MDA-MB-435 = test system: MDA-MB-435
CAKI-1 renal = test system: CAKI-1 renal
ACHN renal = test system: ACHN renal
OVCAR-8 ovarian = test system: OVCAR-8 ovarian
PC-3 prostate = test system: PC-3 prostate
HCC-2998 colon = test system: HCC-2998 colon

## OC(C(=Nc1ccccc1)c1ccccc1)c1ccccc1 (stereo not given)
MDA-MB-231 breast
  TGI: 39.3 µM
BT-549 breast
  TGI: 9.51 µM
SK-MEL-28 melanoma
  TGI: 15.2 µM
HT29 colon
  TGI: 25.6 µM
TK-10 renal
  TGI: 9.53 µM
786-0 renal
  TGI: 41.9 µM
SN12C renal
  TGI: 25.3 µM
OVCAR-3 ovarian
  TGI: 14.3 µM
HCT-116 colon
  TGI: 31.8 µM
HL-60(TB) leukemia
  TGI: 56.1 µM
HCT-15 colon
  TGI: > 100 µM
SW-620 colon
  TGI: 66.5 µM
KM12 colon
  TGI: 10.4 µM
HS 578T breast
  TGI: 7.11 µM
SNB-75 CNS
  TGI: 25.4 µM
K-562 leukemia
  TGI: > 100 µM
HOP-62 NSCLC
  TGI: 39.8 µM
DU-145 prostate
  TGI: 21.7 µM
NCI-H522 lung
  TGI: 18.9 µM
LOX IMVI melanoma
  TGI: 38.2 µM
CCRF-CEM leukemia
  TGI: 27.9 µM
SK-MEL-5 melanoma
  TGI: 5.87 µM
COLO 205 colon
  TGI: 20.9 µM
SK-OV-3 ovarian
  TGI: 55.8 µM
NCI-H23 lung
  TGI: 40.4 µM
SF-268 CNS
  TGI: 17.4 µM
UO-31 renal
  TGI: 39.8 µM
MCF7 breast
  TGI: 45.4 µM
UACC-257 melanoma
  TGI: 5.56 µM
NCI/ADR-RES ovarian
  TGI: 65.7 µM
NCI-H226 lung
  TGI: 34.1 µM
RPMI-8226 leukemia
  TGI: 71.1 µM
UACC-62 melanoma
  TGI: 15 µM
MALME-3M melanoma
  TGI: 7.01 µM
SNB-19 CNS
  TGI: 31.6 µM
T-47D breast
  TGI: > 100 µM
A549 NSCLC
  TGI: 33.6 µM
MOLT-4 leukemia
  TGI: 55.1 µM
M14 melanoma
  TGI: 39.1 µM
A498 renal
  TGI: 33.6 µM
SF-539 CNS
  TGI: 25.3 µM
RXF 393 renal
  TGI: 26.1 µM
SF-295 CNS
  TGI: 26.3 µM
U251 CNS
  TGI: 15.6 µM
OVCAR-4 ovarian
  TGI: 51.8 µM
NCI-H460 lung
  TGI: 34.3 µM
OVCAR-5 ovarian
  TGI: 82.3 µM
SK-MEL-2 melanoma
  TGI: 6.47 µM
EKVX NSCLC
  TGI: 9.35 µM
SR leukemia
  TGI: 10.7 µM
IGROV1 ovarian
  TGI: 51.7 µM
HOP-92 NSCLC
  TGI: 21 µM
MDA-MB-435
  TGI: 11.8 µM
CAKI-1 renal
  TGI: 30.3 µM
ACHN renal
  TGI: 31.5 µM

## COc1cc2c3c(n(CCCNCCN4CCOCC4)c(=O)c2cc1OC)-c1cc2c(cc1C3=O)OCO2
MDA-MB-231 breast
  GI50: 2.18 µM
  TGI: 5.72 µM
BT-549 breast
  GI50: 7.64 µM and 7.01 µM
  TGI: 16.6 µM and 29.5 µM
HT29 colon
  GI50: 2.2 µM and 1.78 µM
  TGI: 50 µM and > 100 µM
TK-10 renal
  GI50: 7.2 µM and 7.5 µM
  TGI: 14.8 µM and 23.5 µM
786-0 renal
  GI50: 1.97 µM
  TGI: 5.23 µM
SN12C renal
  GI50: 1.31 µM
  TGI: 6.5 µM
OVCAR-8 ovarian
  GI50: 4.37 µM
  TGI: 17.4 µM
OVCAR-3 ovarian
  GI50: 0.528 µM and 0.6 µM
  TGI: 1.4 µM and 3.27 µM
HCT-116 colon
  GI50: < 0.005 µM
  TGI: 0.0975 µM
HL-60(TB) leukemia
  GI50: 0.321 µM and 2.7 µM
HCT-15 colon
  GI50: 0.453 µM and 2.14 µM
SW-620 colon
  GI50: 0.0762 µM
  TGI: 1.33 µM
KM12 colon
  GI50: 0.554 µM and 1.48 µM
  TGI: 1.6 µM and 4.69 µM
HS 578T breast
  GI50: 2.94 µM and 16.9 µM
  TGI: 13.3 µM and 48 µM
SNB-75 CNS
  GI50: 13.6 µM and 3.69 µM
  TGI: 50 µM and 9.87 µM
PC-3 prostate
  GI50: 1.9 µM and 1.59 µM
  TGI: 9.18 µM and 4.91 µM
K-562 leukemia
  GI50: 7.72 µM
  TGI: > 67.1 µM
HOP-62 NSCLC
  TGI: 0.79 µM and 1.93 µM
DU-145 prostate
  GI50: 0.678 µM
  TGI: 3.8 µM
NCI-H522 lung
  GI50: 2.15 µM
  TGI: > 100 µM
LOX IMVI melanoma
  GI50: 1.04 µM
  TGI: 3.34 µM
SK-MEL-5 melanoma
  TGI: 7.74 µM and 20.2 µM
COLO 205 colon
  GI50: 2.01 µM and 7.31 µM
  TGI: 50 µM and 45.8 µM
SK-OV-3 ovarian
  GI50: 4.68 µM and 1.27 µM
NCI-H23 lung
  TGI: 0.529 µM and 3.83 µM
SF-268 CNS
  TGI: 8.09 µM and > 65.8 µM
UO-31 renal
  GI50: 5.98 µM and 2.19 µM
  TGI: 15.2 µM and > 100 µM
UACC-257 melanoma
  GI50: 6.99 µM and 19.2 µM
  TGI: 14.2 µM and 46.2 µM
NCI/ADR-RES ovarian
  GI50: 0.11 µM
  TGI: 0.69 µM
NCI-H226 lung
  GI50: 15.1 µM
  TGI: 53.8 µM
RPMI-8226 leukemia
  GI50: 0.122 µM and 0.0199 µM
  TGI: 1.14 µM and 0.681 µM
UACC-62 melanoma
  GI50: 1.38 µM
  TGI: 7.58 µM
MALME-3M melanoma
  GI50: 6.5 µM and 8.31 µM
  TGI: 14.5 µM and 27.3 µM
SNB-19 CNS
  GI50: 2.23 µM and 0.77 µM
  TGI: 50 µM and > 55.2 µM
T-47D breast
  GI50: 2.56 µM and 23.5 µM
  TGI: 50 µM and 70.2 µM
A549 NSCLC
  GI50: 0.182 µM and 1.37 µM
  TGI: 5.42 µM
MOLT-4 leukemia
  GI50: < 0.005 µM
  TGI: 19.7 µM
A498 renal
  GI50: 4.1 µM and 16 µM
  TGI: 11.4 µM and 35.8 µM
SF-539 CNS
  GI50: 1.08 µM
  TGI: 3.88 µM
SF-295 CNS
  GI50: < 0.005 µM and 0.0343 µM
  TGI: 2.13 µM and 1.55 µM
U251 CNS
  TGI: 0.959 µM and 4.55 µM
OVCAR-4 ovarian
  TGI: 50 µM and 12.2 µM
OVCAR-5 ovarian
  GI50: 0.913 µM and 2.31 µM
  TGI: 1.74 µM and 5.16 µM
SK-MEL-2 melanoma
  GI50: 7.78 µM and 3.92 µM
  TGI: 14.7 µM and 19.7 µM
EKVX NSCLC
  GI50: 8.93 µM and 7.24 µM
  TGI: 18.2 µM and 18.6 µM
SR leukemia
  GI50: < 0.005 µM
IGROV1 ovarian
  GI50: 6.92 µM and 2.12 µM
  TGI: 23.5 µM and > 100 µM
HOP-92 NSCLC
  GI50: 5.79 µM and 1.26 µM
  TGI: 12.4 µM and 3.92 µM
MDA-MB-435
  GI50: 1.93 µM and 4.36 µM
  TGI: 10.3 µM and 19.2 µM
CAKI-1 renal
  GI50: 2.61 µM
  TGI: 19.4 µM
ACHN renal
  TGI: 0.658 µM and 2.62 µM

## O=Cc1cc(O)c(O)c(/C=N/n2c3ccccc3c3ccccc32)c1
MDA-MB-231 breast
  TGI: 30.2 µM
BT-549 breast
  TGI: 12.4 µM
SK-MEL-28 melanoma
  TGI: 42.1 µM
HT29 colon
  TGI: 48.1 µM
TK-10 renal
  TGI: 82 µM
786-0 renal
  TGI: 20.7 µM
HCC-2998 colon
  TGI: 30.9 µM
SN12C renal
  TGI: 18.2 µM
OVCAR-8 ovarian
  TGI: 18.7 µM
OVCAR-3 ovarian
  TGI: 10.1 µM
HCT-116 colon
  TGI: 31.2 µM
HL-60(TB) leukemia
  TGI: 6.32 µM
HCT-15 colon
  TGI: 19.4 µM
SW-620 colon
  TGI: 44.7 µM
KM12 colon
  TGI: 84.3 µM
HS 578T breast
  TGI: > 100 µM
SNB-75 CNS
  TGI: 9.76 µM
PC-3 prostate
  TGI: 28.7 µM
K-562 leukemia
  TGI: 26.7 µM
HOP-62 NSCLC
  TGI: 28 µM
DU-145 prostate
  TGI: 49 µM
NCI-H522 lung
  TGI: 7.03 µM
LOX IMVI melanoma
  TGI: > 100 µM
CCRF-CEM leukemia
  TGI: 9.87 µM
COLO 205 colon
  TGI: 26.3 µM
SK-OV-3 ovarian
  TGI: 21.1 µM
NCI-H23 lung
  TGI: 34.7 µM
SF-268 CNS
  TGI: 20 µM
UO-31 renal
  TGI: 26.1 µM
MCF7 breast
  TGI: 4.62 µM
UACC-257 melanoma
  TGI: 27.9 µM
NCI-H226 lung
  TGI: 33.2 µM
RPMI-8226 leukemia
  TGI: 6.49 µM
UACC-62 melanoma
  TGI: 22.9 µM
MALME-3M melanoma
  TGI: 30.8 µM
SNB-19 CNS
  TGI: > 100 µM
T-47D breast
  TGI: 40.4 µM
A549 NSCLC
  TGI: > 100 µM
MOLT-4 leukemia
  TGI: 12.5 µM
M14 melanoma
  TGI: 23.6 µM
A498 renal
  TGI: 49.8 µM
SF-539 CNS
  TGI: 24.7 µM
RXF 393 renal
  TGI: 23.5 µM
SF-295 CNS
  TGI: 27.7 µM
U251 CNS
  TGI: 45.5 µM
OVCAR-4 ovarian
  TGI: 13.5 µM
NCI-H460 lung
  TGI: 36.7 µM
OVCAR-5 ovarian
  TGI: 49 µM
EKVX NSCLC
  TGI: 43.5 µM
SR leukemia
  TGI: 21.4 µM
HOP-92 NSCLC
  TGI: 9.23 µM
MDA-MB-435
  TGI: 28.3 µM
CAKI-1 renal
  TGI: 36.6 µM
ACHN renal
  TGI: 21.1 µM

From PubChem BioAssay (NCI)
